Assay results published in patent US20230227917A1, “PREDICTING RESPONSE TO PD-1 AXIS INHIBITORS” (Hoffmann-La Roche Inc., priority 2020, published 2023).

Key:
Assay type in all cases: in vivo, human
[1] = system: patients with locally advanced or metastatic Non-Small Cell Lung Cancer; assay: Survival by stem cell score, Phase III trial OAK (NCT02008227), Atezolizumab vs Docetaxel; settings: for HR overall survival, score low vs high: within treatment
Description: We hypothesized that patients with a low abundance of stem cell maintenance-related cancer cells may respond to PD-L1 blockade leading to beneficial effect in patients who received the treatment. We analyzed 739 patients with non-small cell lung cancer who received Atezolizumab (MPDL3280A, n=358) and Docetaxel (n=381) in a Phase III clinical trial (NCT02008227, OAK) (https://clinicaltrials.gov/ct2/show/NCT02008227). This study was sponsored by Genentech Inc., a member of the Roche Group, which provided the study drug.
The protocol and its amendments were approved by the relevant institutional review boards or ethics committees, and all participants provided written informed consent. This study was conducted in accordance with the Declaration of Helsinki and International Conference on Harmonization Guidelines for Good Clinical Practice. Tumor specimens at baseline were archived and taken for gene expression profiling performed by RNA Sequencing (RNA-Seq). In total, 144 human stem cell related genes derived from Gene Ontology were selected and further processed resulting in a selected a list of 4 genes consisting of ASPM, CNOT3, LRPS, and PBX1, which are associated with abundance of stem cell maintenance-related cancer cells. The log2 CPM expression values of each selected gene across the whole cohort were divided at medium expression level for the higher expression ones (+) and lower/no expression ones (−). Using in-house R scripts, the two defined subgroups were plotted against the Kaplan-Meier survival curves.
(§1) As several genes linked to stem cell maintenance-related cancer cells were associated with the survival advantages, we investigated the impact of multiple genes involved in stem cell maintenance-related cancer cells by defining a cumulative cancer stem cell gene score reflecting the cumulative expression of these marker genes. Each gene's expression is first standardized by a z-score:
(§2) where μ and μ are estimated in the entire cohort or in the selected subgroups. After the standardization step, these standardized z-score values are averaged across genes within each patient. The OAK cohort was corrected for the sex of patient, age, histolog as well as PD-L1 status. […] In addition, we also identified an advantage in progression-free survival.

[2] = system: patients with locally advanced or metastatic Non-Small Cell Lung Cancer; assay: Survival by stem cell score, Phase II trial BIRCH (NCT02031458), Atezolizumab
Description: (§3) We hypothesized that patients with a low abundance of stem cell maintenance-related cancer cells may respond to PD-L1 blockade leading to beneficial effect in patients who received the treatment. We analyzed 597 patients with non-small cell lung cancer who received Atezolizumab in a Phase II clinical trial (NCT02031458, BIRCH) (https://clinicaltrials.gov/ct2/show/NCT02031458). This study was sponsored by Genentech Inc., a member of the Roche Group, which provided the study drug. The protocol and its amendments were approved by the relevant institutional review boards or ethics committees, and all participants provided written informed consent. This study was conducted in accordance with the Declaration of Helsinki and International Conference on Harmonization Guidelines for Good Clinical Practice.
(§4) Tumor specimens at baseline were archived and taken for gene expression profiling performed by RNA Sequencing (RNA-Seq).). In total, 144 human stem cell related genes derived from Gene Ontology were selected and further processed resulting in a selected a list of 4 genes consisting of ASPM, CNOT3, LRPS, and PBX1, which are associated with abundance of stem cell maintenance-related cancer cells. The log2 CPM expression values of each selected gene across the whole cohort were divided at medium expression level for the higher expression ones (+) and lower/no expression ones (−). Using in-house R scripts, the two defined subgroups were plotted against the Kaplan-Meier survival curves. […] Table 2 summarizes the median survival as well as HR per single gene used for the stem cell maintenance-related cancer cells signature.
as §1
as §2, with “BIRCH” for “OAK”, “age” for “age, histolog”, “smoking” for “PD-L1”

[3] = system: patients with locally advanced or metastatic Urothelial Bladder Cancer; assay: Survival by stem cell score, Phase III trial IMvigor211 (NCT02302807), Atezolizumab vs standard of care
Description: as §3, with “750” for “597”, “locally advanced or metastatic urothelial bladder” for “non-small cell lung”, “Atezolizumab (n=369), Paclitaxel (n=123), Vinflunine (n=194) or Docetaxel (n=41)” for “Atezolizumab”, “III” for “II”, “(NCT02302807, IMvigor 211) (https://clinicaltrials.gov/ct2/show/NCT02302807).” for “(NCT02031458, BIRCH) (https://clinicaltrials.gov/ct2/show/NCT02031458).”
as §4, with “Sequencing (RNA-Seq).” for “Sequencing (RNA-Seq).).”, “Table 3” for “Table 2”
as §1
as §2, with “IMvigor211” for “OAK”, “age” for “age, histolog”, “smoking” for “PD-L1”, “adavantage” for “advantage”

[4] = cumulative cancer stem cell score (ASPM, CNOT3, LRP5, PBX1) low
[5] = cumulative cancer stem cell score high
[6] = cumulative cancer stem cell score
[7] = gene ASPM, Stem cell score high
[8] = gene CNOT3, Stem cell score high
[9] = gene CNOT3, Stem cell score low
[10] = gene LRP5, Stem cell score high
[11] = gene PBX1, Stem cell score high
[12] = cumulative cancer stem cell score low

CC(=O)O[C@@]12CO[C@@H]1C[C@H](O)[C@@]1(C)C(=O)[C@H](O)C3=C(C)[C@@H](OC(=O)[C@H](O)[C@@H](NC(=O)OC(C)(C)C)c4ccccc4)C[C@@](O)([C@@H](OC(=O)c4ccccc4)[C@H]21)C3(C)C [Docetaxel]
median overall survival [1, 4]: 334 days | median overall survival [1, 5]: 282 days | HR overall survival, score low vs high [1, 6]: 0.76 | Median survival [1, 7]: 270 days | Median survival ([1]; gene ASPM, Stem cell score low): 365 days | Median survival [1, 8]: 299 days | Median survival [1, 9]: 339 days | Median survival [1, 10]: 320 days | Median survival ([1]; gene LRP5, Stem cell score low): 312 days | Median survival [1, 11]: 262 days | Median survival ([1]; gene PBX1, Stem cell score low): 356 days

atezolizumab
HR progression-free survival, score low vs high [1, 6]: 0.69 | median overall survival [1, 4]: 492 days | median overall survival [1, 5]: ~257 days | median progression-free survival [1, 5]: ~51 days | median progression-free survival [1, 12]: ~86 days | HR overall survival, score low vs high [1, 6]: 0.67 | HR overall survival, predictive effect for Atezolizumab ([1]; cumulative stem cell score low group, Atezolizumab vs Docetaxel): 0.72 | Median survival [1, 7]: 256 days | Median survival ([1]; gene ASPM, Stem cell score low): 467 days | HR (Atezo vs SoC) ([1]; gene ASPM, Stem cell score low, Atezolizumab vs Docetaxel): HR: 0.84 | HR (low vs high) ([1]; gene ASPM, score low vs high within treatment): HR: 0.65 | Median survival [1, 8]: 337 days | Median survival [1, 9]: 433 days | HR (Atezo vs SoC) ([1]; gene CNOT3, Stem cell score low, Atezolizumab vs Docetaxel): HR: 0.83 | HR (low vs high) ([1]; gene CNOT3, score low vs high within treatment): HR: 0.89 | Median survival [1, 10]: 384 days | Median survival ([1]; gene LRP5, Stem cell score low): 405 days | HR (Atezo vs SoC) ([1]; gene LRP5, Stem cell score low, Atezolizumab vs Docetaxel): HR: 0.83 | HR (low vs high) ([1]; gene LRP5, score low vs high within treatment): HR: 0.97 | Median survival [1, 11]: 329 days | Median survival ([1]; gene PBX1, Stem cell score low): 456 days | HR (Atezo vs SoC) ([1]; gene PBX1, Stem cell score low, Atezolizumab vs Docetaxel): HR: 0.92 | HR (low vs high) ([1]; gene PBX1, score low vs high within treatment): HR: 0.89 | HR overall survival, score low vs high [2, 6]: 0.77 | HR progression-free survival, score low vs high [2, 6]: 0.74 | median overall survival [2, 5]: ~437 days | median progression-free survival [2, 5]: ~89 days | median overall survival [2, 12]: ~583 days | median progression-free survival [2, 12]: ~127 days | HR (low vs high) ([2]; gene ASPM): HR: 0.78 | Median survival [2, 7]: 457 days | Median survival ([2]; gene ASPM, Stem cell score low): 566 days | HR (low vs high) ([2]; gene CNOT3): HR: 0.88 | Median survival [2, 8]: 482 days | Median survival [2, 9]: 510 days | HR (low vs high) ([2]; gene LRP5): HR: 1.02 | Median survival [2, 10]: 498 days | Median survival ([2]; gene LRP5, Stem cell score low): 471 days | HR (low vs high) ([2]; gene PBX1): HR: 1.02 | Median survival [2, 11]: 510 days | Median survival ([2]; gene PBX1, Stem cell score low): 471 days | HR overall survival, score low vs high [3, 6]: 0.64 | HR progression-free survival, score low vs high [3, 6]: 0.69 | median overall survival [3, 5]: ~211 days | median progression-free survival [3, 5]: ~63 days | median overall survival [3, 12]: ~357 days | median progression-free survival [3, 12]: ~66 days | HR overall survival, predictive effect for Atezolizumab ([3]; cumulative stem cell score low groups, Atezolizumab vs standard of care): 0.70 | HR (low vs high) ([3]; gene ASPM): HR: 1.05 | Median survival [3, 7]: 271 days | HR (Atezo vs SoC) ([3]; gene ASPM, Stem cell score low): HR: 0.93 | Median survival ([3]; gene ASPM, Stem cell score low): 257 days | HR (low vs high) ([3]; gene CNOT3): HR: 0.85 | Median survival [3, 8]: 242 days | HR (Atezo vs SoC) [3, 9]: HR: 0.83 | Median survival [3, 9]: 297 days | HR (low vs high) ([3]; gene LRP5): HR: 0.76 | Median survival [3, 10]: 241 days | HR (Atezo vs SoC) ([3]; gene LRP5, Stem cell score low): HR: 0.74 | Median survival ([3]; gene LRP5, Stem cell score low): 298 days | HR (low vs high) ([3]; gene PBX1): HR: 0.74 | Median survival [3, 11]: 247 days | HR (Atezo vs SoC) ([3]; gene PBX1, Stem cell score low): HR: 0.67 | Median survival ([3]; gene PBX1, Stem cell score low): 279 days
